Laboratory results published in patent EP0400799A1, “Phenylpyrimidone derivatives” (SMITH KLINE & FRENCH LABORATORIES LIMITED, priority 1989, dated 1990).

Tests used:
hindquarter blood flow = assay: Vasodilatation in vivo, perfused hindquarter blood flow; conditions: Rattus norvegicus, iv; dose producing a 50% increase in hindquarter blood flow; anaesthetised male Wistar rats; bolus i.v.; read-out: EDHQ₅₀
Protocol: Male Wistar rats (300 g) were anaesthetised with a sodium 5-ethyl-5-(1-methylpropyl)-2-thiobarbiturate/sodium pentobarbitone mixture i.p. (62.5 and 22.5 mg/kg respectively). The trachea was cannulated and the rats breathed spontaneously air enriched with O₂ (5 ml/min). Blood pressure was recorded from a carotid artery and a jugular vein was cannulated for the administration of compounds. The temperature of the animal was maintained at 37°C by the use of an electric blanket. […] The perfusion circuit was primed with 5% bovine serum albumin dissolved in 0.9% sodium chloride solution, pH adjusted to 7.4. Initially the pump rate was set between 10 and 15 ml/min to match the hind quarter perfusion pressure to that of the systemic circulation. Once set, the pressure remained unaltered for the rest of the experiment. A change in the speed of the pump (equivalent to hindquarter blood flow) was used to assess the changes in hindquarter vascular resistance.
All compounds were administered as a bolus i.v. and from the dose response curves the dose required to produce a 50% increase in hindquarter blood flow (EDHQ₅₀) was determined in µmoles/kg.

[1] = system: histamine bronchoconstriction; assay: Bronchodilatation in vivo, histamine-induced bronchoconstriction (airway resistance, Konzett-Rossler); design: species or system guinea-pigs of the Dunkin Hartley strain; conditions: Cavia porcellus, iv; dose reducing histamine bronchoconstriction by 50%; anaesthetised male guinea-pigs; i.v. bolus one minute before histamine challenge; read-out: BD₅₀
Protocol: A. Male guinea-pigs of the Dunkin Hartley strain (500 - 600 g) were anaesthetised with Sagatal (pentobarbital sodium) (60 mg/kg i.p.). Airway resistance was measured using a modification of the classical Konzett-Rossler technique (J. Pharm. Methods, 13, 309-315, 1985). A dose of histamine which gave approximately 150% increase in airway resistance was selected for i.v. administration. Bolus doses of the compound under test were administered (i.v.) one minute before the histamine challenge and the subsequent peak inhibition of bronchoconstriction recorded.
The dose of compound required to reduce the histamine bronchoconstriction by 50% is given as the BD₅₀.

[2] = system: U46619-induced bronchoconstriction; assay: Bronchodilatation in vivo, U46619-induced bronchoconstriction (airway resistance, Konzett-Rossler); design: species or system guinea-pigs of the Dunkin Hartley strain; conditions: Cavia porcellus, iv; dose reducing U46619-induced bronchoconstriction by 50%; anaesthetised male guinea-pigs; i.v. bolus; U46619 infused i.v. 2.5 nmol/min; read-out: BD₅₀
Protocol: B. Male guinea-pigs of the Dunkin Hartley strain (500 - 600g) were anaesthetised with Sagatal (pentobarbital sodium) (60 mg/kg). Airway resistance was measured using a modification of the classical Konzett-Rossler technique (J. Pharm. Methods, 13, 309-315, 1985). U46619 (9,11-methanoepoxy-PGH₂) was infused i.v. at a rate of 2.5 nmol/min, this produced a steady state of bronchoconstriction (approximately 120% increase from basal airway resistance). The compound under test was administered by i.v. bolus injection, and the subsequent peak inhibition of bronchoconstriction recorded.
The dose of compound required to reduce the U46619-induced bronchoconstriction by 50% is given as the BD₅₀.

Row | Structure (SMILES) | ED50 (hindquarter blood flow) [µmol/kg] | ED50 [1] [µmol/kg] | ED50 [2] [µmol/kg]
1 | CCCOc1ccccc1-c1ncc(C(N)=O)c(=O)[nH]1 [y, 1,6-dihydro-6-oxo-2-(2-propoxyphenyl)pyrimidine-5-carboxamide, reference compound] | 23 | 5.6 | –
2 | CCCOc1ccccc1-c1ncc(N)c(=O)[nH]1 [Ex 3, 5-Amino-2-(2-propoxyphenyl)pyrimidin-4(3H)-one] | 19 | 8.34 | –
3 | CCCOc1ccccc1-c1ncc(NC(C)=O)c(=O)[nH]1 [Ex 4, 5-Acetamido-2-(2-propoxyphenyl)pyrimidin-4(3H)-one] | 15.8 | 8.4 | 3.8
4 | CCCOc1ccccc1-c1nccc(=O)[nH]1 [Ex 5, 2-(2-Propoxyphenyl)pyrimidin-4(3H)-one] | 22 | – | 3.2
